Values quoted from earlier work in US20230117508A1, “ENHANCEMENT OF CAMP SIGNALING AS A COMBINATION DRUG STRATEGY FOR THE TREATMENT OF PSYCHIATRIC AND NEUROLOGICAL DISORDERS IN WHICH DEPRESSIVE, ANHEDONIA, MOTIVATION-RELATED OR COGNITION-RELATED DYSFUNCTION EXISTS” (ALTO NEUROSCIENCE, INC., priority 2021, published 2023).

How the values were obtained:
[1] = in vivo
[2] = humans
[3] = small clinical trials in depression
[4] = not given; remark: listed apart in the source

For `O=C(Nc1c(Cl)cncc1Cl)c1ccc(OC(F)F)c(OCC2CC2)c1` [Roflumilast], the antidepressant effect [1] is listed as “no evidence of an antidepressant effect” and the cognitive effects [1] is listed as “pro-cognitive effects”.

For `CCOC(=O)COc1ccc2c(c1)C[C@@H](NC[C@H](O)c1cccc(Cl)c1)CC2` [amibegron], the “antidepressant-like effects in animals” value is given as “promising antidepressant-like effects” and the “efficacy in two acute treatment clinical trials for depression” value [2] is given as “failed to show efficacy”.

For `COc1ccc(C2CNC(=O)C2)cc1OC1CCCC1` (stereo not drawn) [rolipram], the “improvement in depression compared with TCA medications” value [3] is given as “In none of these studies, however, did rolipram produce a greater improvement in depression than the TCA medications” and the “phenotypes of treated mice” value [4] is given as “antidepressant and pro-cognitive phenotypes”.
